# Assay results: article PMC3236199, “Development of Derivatives of 3, 3′-Diindolylmethane as Potent Leishmania donovani Bi-Subunit Topoisomerase IB Poisons” (PLoS ONE, 2011)
# Like-named read-outs stand apart in the source and are kept apart here.
# Assays:
# [1] = tested on: L. donovani AG83 amastigotes in Balb/c mouse peritoneal macrophages; assay: In vitro macrophage infection, clearance of intracellular amastigotes; type: cell-based, Leishmania donovani; conditions: 50 µM, 24 h, infected mouse macrophages
# Text: Balb/c mice, originally obtained from Jackson Laboratories, Bar Harbor, ME and reared in the institute animal facilities, were used for experimental purposes with prior approval of the animal ethics committee. Macrophages were isolated from mice 36 to 48 hr post injection (intraperitoneal) with 2% (w/v) hydrolyzed starch by peritoneal lavage with ice-cold phosphate-buffered saline. Cells were washed and cultured for 18–24 hr (for adherence) in RPMI 1640 (supplemented with 100 IU/ml of penicillin and […] of streptomycin) containing 10% (v/v) heat-inactivated FBS (RPMI-FBS) at 37°C with 5% CO2 in air on sterile cover glass (22 mm×22 mm) placed in disposable plates 35 mm in diameter (Tarsons India Ltd.). The culture medium was washed off and fresh RPMI-FBS was added. About 5×10^5 macrophages were maintained for proper distribution on cover glass. During the course of this study, macrophages were infected with promastigotes at a macrophage-to-parasite ratio of 1∶10 in RPMI-FBS for 6 hours to ensure entry of parasite. Following incubation, unphagocytosed parasites were removed by washing with medium, and cells were resuspended in RPMI-FBS at 37°C, 5% CO2 and then incubated for 6 hrs. Cultures were transferred to a CO2 incubator at 37°C and incubated for another 10–12 hr. Respective inhibitors were added at different concentrations (ranging from 5 µM to 50 µM) to infected macrophages and left for another 24 hr period. Cells were then fixed in methanol and stained with 2% Giemsa. Percentages of infected cells and total number of intracellular parasites were determined by manual counting in at least 200 cells using light microscope.
# Primary macrophage cells were obtained from Balb/c mice peritoneal extrudates. After adherence and inactivation, these macrophage cells were infected with early passaged L. donovani AG83 promastigotes were infected to macrophages. After subsequent washing they were incubated with different concentrations (5, 10, 20 and 50 µM) of each of these inhibitors for 24 h (Fig. 3A). Macrophages were fixed and intracellular amastigotes were counted by Giemsa staining. […]
# Figure 3 Effectiveness of clearance of internalized L. donovani (AG83) from in vitro infected mouse M [drawing 3] . […] Cells were fixed, stained with Giemsa and counted under bright field microscope. […] Experiments were carried out for three times and representative results are the mean ± S.D. (B) Growth of DIM resistant L. donovani axenic amastigotes were monitored in presence of increasing concentrations (2, 5, 10, 20 and 50 µM) of DIM, DPDIM, DMDIM and DMODIM for 12 h. […] Growth of the parasites treated with the compounds was expressed as percentage of the viable promastigotes compared with that of control. […]
# [2] = tested on: L. donovani AG83 promastigotes; assay: Cell viability assay, wild type promastigotes; type: cell-based; conditions: Leishmania donovani, 12 h, read-out: growth inhibited
# Protocol: (§1) L. donovani strain AG83 and DIM resistant parasite DR50 promastigotes were grown at 22°C in M199 liquid media supplemented with 10% FBS as described. Axenic amastigotes were cultured in modified M199 medium (pH 5.3) supplemented with 10 mM sodium succinate, 40 mM HEPES and 25% FCS and maintained at 37°C with 5% CO2.The effect of drugs on the viability of Leishmania parasites was determined by direct microscopic counting using light microscope (40× objective) in a haemocytometer. The cells at the exponential phase were collected and transferred into 24-well plate (3.5×10^6 cells per well). The cells were then incubated for 12 h in the presence of various concentrations of DIM, DPDIM, DMDIM and DMODIM (1, 5, 10, 20 and 50 µM). For other experiments, 10^4 cells were taken and grown in presence of the respective derivatives for a period of 30 days. For each 5 day interval, a small amount of aliquots were taken out. After incubation the cells were centrifuged and cell pellet was washed with PBS (1×) twice and finally suspended in 1 ml PBS (1×). Fifty µl of aliquot was taken, mixed with 0.4% trypan blue solution and incubated for 3 min at 22°C. One drop of the mixture was transferred to haemocytometer and the clear (live) and blue (dead) cells were counted. The total number of viable cells in aliquot was calculated by multiplying the total number of viable cells by 2 (the dilution factor for trypan blue). To obtain the total number of cells in the aliquot, total number of viable and nonviable cells were added up and multiplied by 2. Percentages of viable cells were calculated using the formula: [drawing 1]
# (§2) The effects of different derivatives of DIM on cell proliferation were tested by incubating wild type and DIM resistant L. donovani promastigotes (3.5×10^6 cells/ml) with the drugs. […] The number of live promastigotes was measured by differential staining of live and dead cells using light microscope under 40× objective (Fig. 2). […]
# (§3) Figure 2 Effect of DIM-derivatives on Leishmania parasites. Growth of L. donovani AG83 promastigotes (A) and DIM resistant promastigotes (B) were monitored in presence of increasing concentrations (1, 5, 10, 20 and 50 µM) of DIM, DPDIM, DMDIM and DMODIM for 12 h. […] Change in IC50 values after a prolong exposure to DIM derivatives (C) has been assessed as described in Materials and Methods. After every 5 day a small aliquot was taken out and number of viable promastigotes was counted for each concentration. IC50 values have been determined from them using Graph Pad Prsim ver 5.0 software and a graphical plot was generated over time. Growth of the parasites treated with the compounds was expressed as percentage of the viable promastigotes compared with that of control. […]
# [3] = tested on: DIM resistant L. donovani promastigotes (DR50); assay: Cell viability assay, DIM resistant promastigotes; type: cell-based; conditions: Leishmania donovani, 12 h, read-out: growth inhibited
# Protocol: as §1, §2, §3
SMILES,efficiency of amastigote killing (clearance from macrophages) [1],inhibition at 20 µM [2] [%],inhibition at 20 µM [3] [%],"inhibition at 20 µM ([2]; 20 µM, wild type AG83 promastigotes) [%]"
"Cc1[nH]c2ccccc2c1Cc1c(C)[nH]c2ccccc12 [DMDIM, 2,2′-dimethyl 3,3′-diindolyl methane]",92%,83,85,–
"COc1ccc2[nH]cc(Cc3c[nH]c4ccc(OC)cc34)c2c1 [DMODIM, 5,5′-dimethoxy 3,3′-diindolyl methane]",about 85%,70,65,–
"c1ccc2c(Cc3c[nH]c4ccccc34)c[nH]c2c1 [DIM, 3, 3′-diindolyl methane, reference compound]",91%,–,20,88
"c1ccc(-c2[nH]c3ccccc3c2Cc2c(-c3ccccc3)[nH]c3ccccc23)cc1 [DPDIM, 2,2′-diphenyl 3,3′-diindolyl methane]",96%,96,90,–
